Residue numbers refer to the chain shown, from its start. Where two headings read alike, the source gives them in different places.
How the values were obtained:
[1] = molecular target: T1, OR5K1 (Homo sapiens, UniProt Q8NHB7); design: method as in PMID 34047404; conditions: cited from earlier work; for EC50: OR5K1 agonist activity, data retrieved from the literature
T1 construct: The protein-coding region of human OR5K1 (NM_001004736.3); IL-6-HaloTag (from expression plasmid pFN210A) (N); expressed in transfected cells; host or cells: HEK-293
T1 sequence (Q8NHB7 1-308): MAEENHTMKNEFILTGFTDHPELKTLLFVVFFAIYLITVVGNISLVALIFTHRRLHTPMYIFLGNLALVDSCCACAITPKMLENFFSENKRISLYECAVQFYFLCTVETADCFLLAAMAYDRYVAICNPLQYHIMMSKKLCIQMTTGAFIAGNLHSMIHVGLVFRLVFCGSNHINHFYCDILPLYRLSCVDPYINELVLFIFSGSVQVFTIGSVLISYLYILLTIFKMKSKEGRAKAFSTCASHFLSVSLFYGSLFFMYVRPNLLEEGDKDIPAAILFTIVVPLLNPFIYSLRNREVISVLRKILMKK

[2] = molecular target: T1, OR5K1; test: cAMP-luminescence (GloSensor) concentration-response assay, OR5K1 transiently expressed in HEK-293 cells; format: cell-based; conditions: OR5K1 agonist activity, tested in this work, mean ± SD, n = 4, last tested concentration 300 μM
Procedure: We utilized HEK-293 cells,[101] a human embryonic kidney cell-line, as a test cell system for the functional expression of ORs.[102] Cells were cultivated at 37 °C, 5% CO2, and 100% humidity in 4.5 g/L D-glucose containing DMEM with 10% fetal bovine serum, 2 mM L-glutamine, 100 U/mL penicillin, and 100 U/mL streptomycin. Cells were cultured in a 96-well format (Nunclon Delta Surface, #136102; Thermo Fisher Scientific, Schwerte, Germany) at 12,000 cells/well overnight. Then, cells were transfected utilizing 0.75 μL/well ViaFect (#E4981, Promega, USA) with the following constructs: 100 ng/well of the respective OR construct, 50 ng/well of chaperone RTP1S,[103] 50 ng/well of the G protein subunit Gαolf,[104],[105] olfactory G protein subunit Gγ13,[106] and 50 ng/well of pGloSensor-22F (Promega, Madison, USA).[107] The utilized pGloSensor-22F is a genetically engineered luciferase with a cAMP-binding pocket, allowing for measurements of a direct cAMP-dependent luminescence signal. All measurements were mock-controlled, i.e. pFN210A without OR was transfected in parallel.
Concentration–response assays were measured 42 h post-transfection as described previously.[102] […] For luminescence measurements, the GloMax Discover microplate reader (Promega, Madison, USA) was used. After incubation for 50 min in the dark, the basal luminescence signal of each well was recorded thrice. Then the odorant, serially diluted in the physiological salt buffer with added Pluronic PE-10500 (BASF, Ludwigshafen, Germany), was applied to the cells, and luminescence was measured thrice after 10 min of incubation time. […]
The raw luminescence data obtained from the GloMax Discover microplate reader detection system were analyzed for concentration/response assays by averaging both data points of basal levels and data points after odorant application. For a given luminescence signal, the respective basal level was subtracted, and the now corrected data set was normalized to the maximum amplitude of the reference. […]

[3] = molecular target: T2, OR5K1 L104^3.32A (Homo sapiens, UniProt Q8NHB7, L104A); test: cAMP-luminescence concentration-response assay, mutant OR5K1 L104^3.32A in HEK-293 cells; format: cell-based; conditions: OR5K1 L104^3.32A mutant; mean ± SD, n = 4
T2 construct: The protein-coding region of human OR5K1 (NM_001004736.3); IL-6-HaloTag (from expression plasmid pFN210A) (N); expressed in transfected cells; host or cells: HEK-293
T2 sequence (Q8NHB7 1-308 L104A): T1 sequence (Q8NHB7 1-308) with L104A
Procedure: (§1) Mutants L104^3.32 and L255^6.51 were generated by PCR-based site-directed mutagenesis in two steps. Step one PCR was performed in two amplifications: one with the forward vector-internal primer and the reverse mutation-primer and the other with the forward mutation-primer and the reverse vector-internal primer. Amplification was performed with the touchdown approach described above. Both PCR amplicons were then purified and used as a template for step two. The two overlapping amplicons were annealed using the following touchdown program: denaturation (98 °C, 3 min), ten cycles containing denaturation (98 °C, 30 s), annealing (start 60 °C, 30 s), and extension (72 °C, 2 min). […]
(§2) We utilized HEK-293 cells,[101] a human embryonic kidney cell-line, as a test cell system for the functional expression of ORs.[102] […] The utilized pGloSensor-22F is a genetically engineered luciferase with a cAMP-binding pocket, allowing for measurements of a direct cAMP-dependent luminescence signal. […]
(§3) Concentration–response assays were measured 42 h post-transfection as described previously.[102] […] For luminescence measurements, the GloMax Discover microplate reader (Promega, Madison, USA) was used. After incubation for 50 min in the dark, the basal luminescence signal of each well was recorded thrice. […]

[4] = molecular target: T3, OR5K1 L255^6.51A (Homo sapiens, UniProt Q8NHB7, L255A); test: cAMP-luminescence concentration-response assay, mutant OR5K1 L255^6.51A in HEK-293 cells; format: cell-based; conditions: OR5K1 L255^6.51A mutant; mean ± SD, n = 4
T3 construct: The protein-coding region of human OR5K1 (NM_001004736.3); IL-6-HaloTag (from expression plasmid pFN210A) (N); expressed in transfected cells; host or cells: HEK-293
T3 sequence (Q8NHB7 1-308 L255A): T1 sequence (Q8NHB7 1-308) with L255A
Procedure: as §1, §2, §3

Structure (SMILES)	EC50 [1] [µM]	further results
Cc1cncc(C)n1 [Compound 12, 2,6-Dimethylpyrazine]	544 ± 19.5	–
CCc1nccnc1C [Compound 7, 2-Ethyl-3-methylpyrazine]	538 ± 96.8	–
CCc1nccnc1OC [Compound 5, 2-Ethyl-3-methoxypyrazine]	97.4 ± 15.6	–
CCc1ncc(C)nc1C [Compound 13, 2-Ethyl-3,5-dimethylpyrazine]	–	EC50 [2]: could not be measured to saturation; EC50 ([2]; read-out: EC50): > 300 µM
CCc1nc(C)cnc1C [Compound 2, 2-Ethyl-3,6-dimethylpyrazine]	–	EC50 ([2]; read-out: EC50): 14.8 ± 6.69 µM
CC(=O)c1nccnc1C [Compound 11, 2-Acetyl-3-methylpyrazine]	531 ± 27.6	–
C=CCc1ccc(OC)c(OC)c1 [Compound 3, Methyl eugenol]	62.2 ± 1.45	–
CCc1ncc(C)nc1CC [Compound 1, 2,3-Diethyl-5-methylpyrazine]	10.3 ± 1.06	EC50 [3]: 525 ± 92.3 µM; EC50 [4]: 478 ± 185 µM
CCc1nccnc1C(C)=O [Compound 10, 2-Acetyl-3-ethylpyrazine]	528 ± 167	–
Cc1cnc(C)c(C)n1 [Compound 6, 2,3,5-Trimethylpyrazine]	139 ± 7.08	–
c1cnccn1 [pyrazine, reference compound]	–	activation of OR5K1 [1]: does not activate
COc1nccnc1C(C)C [Compound 9, 2-Isopropyl-3-methoxypyrazine]	146 ± 8.83	–
CCc1nccnc1CC [Compound 4, 2,3-Diethylpyrazine]	94.4 ± 11.9	–

Reference: PMC10091413, “Modeling the Orthosteric Binding Site of the G Protein-Coupled Odorant Receptor OR5K1” (Journal of Chemical Information and Modeling, 2023)
